One compound from patent publication US6924391B2, “Alpha-amino,-thio,-oxo substituted ketones as phospholipase inhibitors” (Bristol-Myers Squibb Company, priority 2000, dated 2005) can be followed below.

Structures can show the parent of a compound that is named as a salt.

What is called melting point is the temperature of the solid-liquid transition. In turn, `COCC(=O)C(F)(F)Cc1ccc(OCCN(C)CC(c2ccc(Cl)cc2)c2ccc(Cl)cc2)cc1` (as salt: hydrochloride) [Example 9, 4-[4-[2-[N-[2-Bis-(4-chlorophenyl)ethyl]-N-methylamino]ethoxy]phenyl]-2,2-difluoro-1-methoxy-2-butanone] yielded a melting point of 53 to 62 °C.
